PMC9266914, “Broad Spectrum Functional Activity of Structurally Related Monoanionic Au(III) Bis(Dithiolene) Complexes” (International Journal of Molecular Sciences, 2022)
Read-outs that look alike come from different tables or passages of the source. Marks after values point to notes of the source that are not given here.

Tests used:
Cyclic voltammetry = format: physicochemical; conditions: for E1/2 −1/0, first value of cell (anodic peak) / E −2/−1 (reduction of monoanion into dianion) / E1/2 −1/0, second value of cell (cathodic peak) / Epa2 0/+1 / Epc2 0/+1: CH2Cl2, NBu4PF6, Pt, 100 mV.s^−1; for potential difference between the second and the first oxidation potentials: CH2Cl2, NBu4PF6
From the text: The redox properties of the various gold(III) bis(dithiolene) and bis(diselenolene) complexes were investigated by cyclic voltammetry using the same conditions, dichloromethane solutions and NBu4PF6 as supporting electrolyte. Under these conditions, the nature of the counter-ion, Ph4P^+ or Et4N^+, had no influence on the redox properties observed, due to ion exchange with the Bu4N^+ of the supporting electrolyte. Thus, only the result of one monoanion is included in Table 1, even if the two salts were analyzed. For all the investigated monoanionic bis(dithiolene) complexes, three redox processes are observed on the cyclic voltammograms. On the anodic scan, the two oxidation waves correspond to the oxidation of the monoanionic species into the neutral and to the monocationic complex. Most of these complexes had the tendency to deposit on the electrode once oxidized and frequently a strong desorption peak was observed on the reversible scan. This phenomenon occurs essentially for the complex with an exocyclic sulfur atom, [AuSR(=S)]^−1. On the cathodic scan, an irreversible process associated with the reduction in the monoanion into the dianion occurs (Scheme 2). […] The presence of oxygen instead of sulfur makes the oxidation of the monoanionic into the neutral species easier. On the other hand, the presence of electron-withdrawing substituents such as =C(CN)2 induces an anodic shift of the oxidation potentials by 300 mV, compared with the =O derivative, leading to a monoanion which is more difficult to oxidize than the other complexes of the series. […] Indeed, the potential difference between the second and the first oxidation potentials amounts to 470 mV and 410 mV for the =O and the =C(CN)2 derivatives, respectively, while for the =S analogues this value is smaller (170 mV). […] For comparison, we also investigated the redox behavior of Auranofin using the same experimental conditions in CH2Cl2 in the presence of NBu4PF6 as a supporting electrolyte. Using these conditions, upon anodic scan only one irreversible oxidation process is observed at 1.42 V vs. SCE. Therefore, all these monoanionic gold bis(dithiolene) and bis(diselenolene) complexes are easier to oxidize than Auranofin.
All reagents and materials from commercial sources were used without further purification. NMR spectra were recorded at room temperature using CDCl3 unless otherwise stated (Figures S7–S15). Chemical shifts are reported in ppm and ^1H NMR spectra were referenced to residual CHCl3 (7.26 ppm) and ^13C NMR spectra were referenced to CHCl3 (77.2 ppm). Mass spectra were recorded with an Agilent 6510 instrument for organics compounds and with a Thermo-Fisher Q-Exactive instrument for complexes by the Center Régional de Mesures Physiques de l’Ouest, Rennes. Cyclic voltammograms (CV)s were carried out on a 10^−3 M solution of complex in CH2Cl2-[NBu4] [PF6] 0.1 M. CVs were recorded on a Biologic SP-50 instruments at 0.1 Vs^−1 on a platinum disk electrode. Potentials were measured versus KCl Saturated Calomel Electrode (SCE). Column chromatography was performed using silica gel Merck 60 (70–260 mesh). The solvents were purified and dried by standard methods. The proligand 2-SEt(=C(CN2)), [72] and complexes [N][AuSMe(=S)], [73] [N][AuSEt(=S)], [74] [P][AuSEt(=O)], [75] [N][AuSeEt(=S)] [75] and [P][AuSPr(=S)] [76] were synthesized according to the previously reported procedure.

[1] = test system: A2780 ovarian cancer cells; experiment: MTT cytotoxicity assay in A2780 (cisplatin sensitive) ovarian cancer cells; format: cell-based, human
Description: (§1) Cells were exposed to increasing concentrations of the complexes (0.01–100 μM) for 24 and/or 48 h, at 37 °C. The IC50 values were calculated from dose–response curves using the colorimetric MTT assay. […] Most complexes presented a similar cytotoxicity profile compared to Auranofin, but higher activity compared to Cisplatin, and, most importantly, were active in the Cisplatin-resistant OVCAR8 cells (Table 2).
(§2) The cytotoxic activity of the complexes was evaluated in the A2780 (cisplatin sensitive) (Sigma-Aldrich) and OVCAR8 (cisplatin resistant) (ATCC) ovarian cancer cells. Cells were grown in RPMI-1640 medium (Gibco, Thermo Fisher) supplemented with 10% fetal bovine serum (FBS) and were maintained at 37 °C in a humidified atmosphere with 5% CO2. The complexes were initially dissolved in DMSO and then in culture medium to prepare serial dilutions in the range 10^−9–10^−4 M. After 24 and/or 48 h incubation the cellular viability was measured by the colorimetric MTT assay, as previously described.

[2] = test system: OVCAR8 ovarian cancer cells; experiment: MTT cytotoxicity assay in OVCAR8 (cisplatin resistant) ovarian cancer cells; format: cell-based, human; conditions: 48 h incubation
Description: as §1, §2

S. aureus Newman = experiment: MIC determination, S. aureus; format: cell-based, Staphylococcus aureus; conditions: MH broth, 22 h, 37 °C
From the text: (§3) The bacterial strains Escherichia coli ATCC25922 and Staphylococcus aureus Newman were used in this work and maintained in Lennox Broth (LB) solid medium, composed of 10 g/L tryptone, 5 g/L yeast extract, 5 g/L NaCl and 20 g/L agar. The fungal strains Candida albicans SC5134 and C. glabrata CBS138 were used in this work and maintained in YPD solid medium, composed of 20 g/L glucose, 20 g/L peptone, 10 g/L yeast extract and 15 g/L agar. The strains were isolated from human infections.
(§4) The antimicrobial activity of the complexes towards the bacterial and fungal strains was assessed by the determination of the Minimal Inhibitory Concentration (MIC) of each complex towards the indicated microbial strains, based on standard methods, and as previously described. […] Serial 1:2 dilutions of stock solutions were prepared for each complex in Mueller–Hinton (MH) broth (Fluka Analytical) or RPMI-1640 medium (Sigma) supplemented with 20 g/L glucose and buffered with 0.165 M morpholinepropanesulphonic acid (RPMIG) to pH 7.0. Solutions prepared with MH were used for testing bacteria, while those prepared with RPMIG were used for testing fungi. For antibacterial activity assays, the final concentrations ranged from 250 to 0.24 μg/mL (when stock solution final concentration was 10 mg/mL), 125 μg/mL to 0.12 μg/mL (when stock solution final concentration was 5 mg/mL) and 62.5 to 0.06 μg/mL (when stock solution final concentration was 2.5 mg/mL). For antifungal assays, the final concentrations ranged from 125 μg/mL to 0.12 μg/mL (when stock solution final concentration was 10 mg/mL), 62.5 to 0.06 μg/mL (when stock solution final concentration was 5 mg/mL) and 31.25 to 0.03 μg/mL (when stock solution final concentration was 2.5 mg/mL). Then, 100 μL aliquots of adequately diluted bacterial suspensions of S. aureus Newman or E. coli ATCC 25922 were mixed with the MH serially diluted complexes aliquots to obtain 5 × 10^5 CFU/mL. In the case of fungi, cultures were diluted to obtain a final optical density of 0.025, measured at 530 nm (OD530). Bacterial suspensions were prepared from cultures grown for 5 h in MH broth at 37 °C and 250 rev·min^−1 and adequately diluted with fresh MH medium, while fungal suspensions were prepared from overnight cultures grown in YPD broth at 30 °C and 250 rev.min^−1 and diluted in buffered RPMIG. After 22 h of incubation at 37 °C (bacteria) or 24 h at 35 °C (fungi), the wells’ content was resuspended by pipetting and the OD640 (bacteria) or OD530 (fungi) were measured in a SPECTROstar Nano microplate reader (BMG Labtech).
(§5) At least three independent experiments were performed in duplicate for each complex under study. […] Positive (no complex) and negative controls (no inoculum) were performed for each experiment. The effect of 5% (V/V) DMSO on microbial growth was also assessed.

E. coli ATCC25922 = experiment: MIC determination, E. coli; format: cell-based, Escherichia coli; conditions: MH broth, 22 h, 37 °C
From the text: as §3, §4, §5

C. albicans SC5134 = experiment: MIC determination, C. albicans; format: cell-based, Candida albicans; conditions: RPMIG, 24 h, 35 °C
From the text: as §3, §4, §5

C. glabrata CBS138 = experiment: MIC determination, C. glabrata; format: cell-based, Candida glabrata; conditions: RPMIG, 24 h, 35 °C
From the text: as §3, §4, §5

[3] = 24 h incubation, read-out: IC50 A2780, 24 h
[4] = 48 h incubation, read-out: IC50 A2780, 48 h

SMILES | E1/2 −1/0, first value of cell (anodic peak) (Cyclic voltammetry) | E −2/−1 (reduction of monoanion into dianion) (Cyclic voltammetry) | E1/2 −1/0, second value of cell (cathodic peak) (Cyclic voltammetry) [V vs. SCE] | Epa2 0/+1 (Cyclic voltammetry) | Epc2 0/+1 (Cyclic voltammetry) [V vs. SCE] | also measured
CCn1c2c(sc1=[Se])[S][Au-]1([S]c3sc(=[Se])n(CC)c3[S]1)[S]2 [[AuSEt(=Se)]^−1] | 0.40/− ** V vs. SCE | −0.80 ** V vs. SCE |  |  |  | 
CC[N+](CC)(CC)CC.CCn1c2c(sc1=S)[Se][Au-]1([Se]c3sc(=S)n(CC)c3[Se]1)[Se]2 [[N][AuSeEt(=S)]] |  |  |  |  |  | IC50 [1, 3]: 19.2 ± 2.01 µM; IC50 [1, 4]: 4.32 ± 1.17 µM; IC50 [2]: 29.4 ± 4.2 µM; MIC S. aureus Newman (S. aureus Newman): 5.5 ± 0.3 µg/mL; MIC E. coli ATCC25922 (E. coli ATCC25922): >125 µg/mL; MIC C. albicans SC5134 (C. albicans SC5134): >62.5 µg/mL; MIC C. glabrata CBS138 (C. glabrata CBS138): 1.6 ± 0.8 µg/mL
Cn1c2c(sc1=S)[S][Au-]1([S]c3sc(=S)n(C)c3[S]1)[S]2 [[AuSMe(=S)]^−1] | 0.51 V vs. SCE | −0.85 V vs. SCE | 0.44 | 0.73 V vs. SCE | 0.56 | 
CCCn1c2c(sc1=S)[Se][Au-]1([Se]c3sc(=S)n(CCC)c3[Se]1)[Se]2 [[AuSePr(=S)]^−1] | 0.54/− ** V vs. SCE | −0.90 V vs. SCE |  | 0.95/− V vs. SCE |  | 
CCN1C(=C(C#N)C#N)SC2=C1[S][Au-]1([S]2)[S]C2=C([S]1)N(CC)C(=C(C#N)C#N)S2 [[AuSEt(=C(CN)2)]^−1] | 0.71 V vs. SCE |  | 0.66 | 1.13 V vs. SCE | 1.06 | potential difference between the second and the first oxidation potentials (Cyclic voltammetry): 410 mV
CC[N+](CC)(CC)CC.CCn1c2c(sc1=[Se])[Se][Au-]1([Se]c3sc(=[Se])n(CC)c3[Se]1)[Se]2 [[N][AuSeEt(=Se)]] |  |  |  |  |  | IC50 [1, 3]: 26.9 ± 3.02 µM; IC50 [1, 4]: 4.84 ± 1.6 µM; IC50 [2]: 13.9 ± 1.61 µM; MIC S. aureus Newman (S. aureus Newman): >62.5 µg/mL; MIC E. coli ATCC25922 (E. coli ATCC25922): >62.5 µg/mL; MIC C. albicans SC5134 (C. albicans SC5134): >31.25 µg/mL; MIC C. glabrata CBS138 (C. glabrata CBS138): 1.8 ± 0.5 µg/mL
CC(C)n1c2c(sc1=S)[Se][Au-]1([Se]c3sc(=S)n(C(C)C)c3[Se]1)[Se]2.CC[N+](CC)(CC)CC [[N][AuSeiPr(=S)]] |  |  |  |  |  | IC50 [1, 3]: 30.3 ± 3.39 µM; IC50 [1, 4]: 8.27 ± 1.12 µM; IC50 [2]: 8.76 ± 0.69 µM; MIC S. aureus Newman (S. aureus Newman): 1.5 ± 0.1 µg/mL; MIC E. coli ATCC25922 (E. coli ATCC25922): >250 µg/mL; MIC C. albicans SC5134 (C. albicans SC5134): >125 µg/mL; MIC C. glabrata CBS138 (C. glabrata CBS138): 2.1 ± 0.1 µg/mL
CCn1c2c(sc1=S)[S][Au-]1([S]c3sc(=S)n(CC)c3[S]1)[S]2 [[AuSEt(=S)]^−1] | 0.55 V vs. SCE | −0.90 V vs. SCE | 0.49 | 0.71 V vs. SCE | 0.61 | 
CCCn1c2c(sc1=S)[S][Au-]1([S]c3sc(=S)n(CCC)c3[S]1)[S]2 [[AuSPr(=S)]^−1] | 0.56 V vs. SCE | −0.85 ** V vs. SCE | 0.53 | 0.73 V vs. SCE | 0.64 | 
CC(C)n1c2c(sc1=S)[Se][Au-]1([Se]c3sc(=S)n(C(C)C)c3[Se]1)[Se]2 [[AuSeiPr(=S)]^−1] | 0.62 V vs. SCE | −0.94 V vs. SCE | 0.57 | 0.75/− V vs. SCE |  | 
CCn1c2c(sc1=[Se])[Se][Au-]1([Se]c3sc(=[Se])n(CC)c3[Se]1)[Se]2 [[AuSeEt(=Se)]^−1] | 0.43/− ** V vs. SCE | −0.84 ** V vs. SCE |  |  |  | 
CCCn1c2c(sc1=[Se])[S][Au-]1([S]c3sc(=[Se])n(CCC)c3[S]1)[S]2 [[AuSPr(=Se)]^−1] | 0.45/− ** V vs. SCE | −0.84 ** V vs. SCE |  |  |  | 
CCCCn1c2c(sc1=S)[S][Au-]1([S]c3sc(=S)n(CCCC)c3[S]1)[S]2 [[AuSBu(=S)]^−1] | 0.55 V vs. SCE | −0.88 ** V vs. SCE | 0.50 | 0.75 V vs. SCE | 0.66 | 
CCn1c2c(sc1=S)[Se][Au-]1([Se]c3sc(=S)n(CC)c3[Se]1)[Se]2 [[AuSeEt(=S)]^−1] | 0.52/− ** V vs. SCE | −0.89 ** V vs. SCE |  |  |  | 
CCn1c2c(sc1=O)[S][Au-]1([S]c3sc(=O)n(CC)c3[S]1)[S]2 [[AuSEt(=O)]^−1] | 0.42 V vs. SCE | −1.05 ** V vs. SCE | 0.36 | 0.89 V vs. SCE | 0.83 | potential difference between the second and the first oxidation potentials (Cyclic voltammetry): 470 mV
